Patent US12286625B2, “Inhibition of mir-22 miRNA by APT-110” (AptamiR Therapeutics, Inc., priority 2016, dated 2025)
Where two headings read alike, the source gives them in different places.

Experiments:
DIO C57BL/6J male mice = test: APT-110 in 14-week old DIO mice on 60% high fat diet treated 6 weeks; format: in vivo, mouse
Protocol: A similar study was performed in 14-week old mice (n=9 per group) which were randomized into 2 groups according to similar body weights and kept on 60% high fat diet (Research Diet D12492) for 6 weeks. One group of mice received subcutaneous injections in the left inguinal fat pad of a custom-designed miR-22-3p inhibitor (APT-110, 18 nucleotides long, 15 mg/kg) on days 0, 2, and 4 of the first week, then once a week for the next 5 weeks. The other group kept on 60% high fat diet received saline injections.
Body composition was measured by NMR at the end of the study (week 6 of treatment). Fat mass was 30% lower in the APT-110 miR-22-3p inhibitor group on 60% fat diet than that in the control group on saline and 60% fat diet (11.29±0.87 vs. 16.11±0.87 grams, p<0.0017). Lean mass was similar in both groups at week 6 of treatment (21.74±0.99 vs. 22.33±0.63 grams).
DIO male C57BL/6J mice were started on a 60% high fat diet at the age of 6-week old and were randomized according to body weight into treatment groups (8 to 12 animals per group) at various ages. After acclimation for 1 to 2 weeks, the mice were administered subcutaneous injections of saline or a miR-22 antagomir in the left inguinal fat pad (injections on Days 0, 2, and 4, then once a week for up to 12 weeks) while they remained on the 60% high fat diet. In some studies, another control group of mice was switched back to a normal 10% fat chow at the time of treatment randomization.
Blood samples were collected by retro-orbital bleeds or cut tip of the tail. Mice underwent body composition analysis by NMR (Bruker LF50 BCA-Analyzer) while they were gently restrained to keep them quiet during this non-invasive measurement. Liver, heart, inguinal fat, perirenal or epididymal fat, and subscapular fat were weighed and collected for histology (10% formalin fixed, then transferred to 70% ethanol for shipment) and gene expression (flash frozen in duplicate). Spleens were weighed and discarded. Blood was collected and processed into serum or plasma at the time of necropsy by cardiocentesis. Serum level of alanine aminotransferase (ALT), aspartate aminotransferase (AST), glucose, insulin, cholesterol and triglycerides were measured.

[1] = system: human subcutaneous adipocytes; test: O2 consumption rate (OCR), Seahorse XF24 with XF Palmitate-BSA Fatty Acid Oxidation kit, human subcutaneous adipocytes; format: cell-based; settings: for basal OCR vs control adipocytes: basal conditions, rosiglitazone 100 nM or APT-110 50 nM, control BSA
Protocol: To characterize the effects of miR-22-3p inhibition on energy utilization in human subcutaneous adipocytes in culture, O2 consumption rate (OCR) was measured with the XF24 Analyzer (Seahorse Bioscience) using the XF Palmitate-BSA Fatty Acid Oxidation substrate kit during the successive addition of Oligomycin, FCCP, and Antimycin/Rotenone, following the manufacturer instructions.
Human subcutaneous pre-adipocytes (ZenBio, NC) were seeded into 96-well plates and differentiated for 7 days, then placed in maintenance medium according to the manufacturer's instructions. On Day 14, the adipocytes were transfected with 50 nM of the miR-22-3p inhibitor APT-110. Medium was exchanged every 2 to 3 days and Seahorse assay was performed on Day 21. Negative control was bovine serum albumin (BSA) and positive control was 100 nM rosiglitazone throughout the culture.

DIO C57BL/6 male mice = format: in vivo, mouse; set-up: Plasma adiponectin: unit not given here; settings: for energy expenditure after i.p. injection: 0.5 mg/kg i.p.
Protocol: A dedicated study was conducted under contract at the University of Buckingham Institute of Translational Medicine (Pr. M A Cawthorne, Pr. P Trayhurn, Dr. C. Stocker) to assess the energetic and metabolic responses to the APT-110 miR-22-3p inhibitor treatment in adult Diet-Inducted-Obese (DIO) C57BL/6 male mice over the course of 3 months. Twenty-four DIO male C57BL/6 mice, who started on 60% high fat diet at the age of 7 weeks, were purchased at 15 weeks of age from the Jackson Laboratory, USA. The mice remained on a 60% high fat diet (Research Diet D12492) throughout the experiment. The mice were kept on a 12 h light/12 h dark light cycle with lights on at 08h00 and at a room temperature of 25±1° C. The mice were allocated to 2 groups of 12 mice each, (2 mice/cage) so that mean and standard deviation for body weight, blood glucose and serum insulin were similar across both groups. Mice were acclimated for two weeks before treatment initiation.
For oral glucose tolerance test, food was removed six hours prior to the start of the glucose tolerance test (09h00) and animals were placed in clean cages. Mice were dosed with glucose at T=0 minutes. Glucose was dissolved in water and given to the mice by oral gavage at a dose of 2.5 g/kg p.o. Blood samples […] were taken from the cut tip of the tail after the application of Lidocaine gel (Biorex Laboratories UK) for the analysis of glucose concentration at −30, 0, 30, 60, 120 and 180 minutes relative to glucose administration. Blood samples were also taken at −30 and +30 minutes for insulin analysis (Crystal Chem Inc. Cat INS90090). Food was returned to the animals at the end of the glucose tolerance test. Plasma nonesterified Fatty Acids (NEFA, Crystal Wako Chemicals Gmbh, Neuss, Germany, Cat 999-75406), leptin (Crystal Chem. Inc., Cat LEP90030) and adiponectin (Alpco Diagnostics, Salem, New Hampshire, Cat 47-ADPMS-E01) were measured as per the manufacturers' recommendations. Body fat and lean content was measured by Nuclear Magnetic Resonance (NMR). Comparison with calibrated standards allowed identification of types of tissue by their density. Dedicated software was used to quantify amounts of adipose and […]. The mice were gently restrained, sufficient to keep them quiescent during this non-invasive technique.
To measure physical activity, mice were kept in their original cages of 2 mice per cage. Recordings were taken using an infra-red recorder linked to a laptop. Recordings were made on the hour every hour from 7 pm until 8 am. Each recording was of 10-minute duration. Lights went out at 8 pm and came on again at 8 am. Analysis of activity was done by virtually drawing 2 lines across each cage (thus dividing them into 3 equal parts). Recordings were analyzed by eye and the number of times a line was broken by a mouse in each 10-minute segment was scored. Energy expenditure was measured at several time points during the course of the study by open-circuit indirect calorimetry with mice kept in their home cages (6 cages of 2 mice per experimental group (Arch, J. R., et al., 2006; Arch, J. R. and P. Trayhurn, 2013).
At the end of the study, tissues and organs were collected, then frozen for future gene expression analysis or placed in 10% neutral buffered formalin solution (Sigma-Aldrich Cat HT501128), then washed in PBS, pH 7.4 and transferred to 70% ethanol for subsequent processing for histologic and immunohistochemistry analyses.
In some studies, non-esterified fatty acids (NEFA), plasma leptin and adiponectin were also measured and oral glucose tolerance tests (OGTT) were performed. Oral glucose tolerance test was performed as follows: Six hours prior to the start of the glucose tolerance test (09h00), food was removed and animals were given clean cages. Mice were dosed with glucose at T=0 minutes. […]

[2] = system: human subcutaneous adipocytes; test: Mitochondrial content/mass by MitoTracker in human subcutaneous adipocytes; format: cell-based; settings: Day 14; Rosiglitazone 100 nM
Protocol: (§1) To assess the effects of miR-22 inhibition on mitochondrial mass and activity, metabolic rate and energy expenditure, in vitro and in vivo experiments were carried out. In vitro intra-cellular assessment of mitochondrial mass and activities, as well as energy expenditure during miR-22 inhibition of human subcutaneous adipocytes were examined. In the model of primary culture of human subcutaneous adipocytes differentiated for 3 days, then transfected with 50 nM of the miR-22-3p inhibitor APT-110 and maintained in culture (n=6 per condition), the following parameters were assessed on Day 14.
(§2) Human subcutaneous preadipocytes purchased from ZenBio, NC (Catalog #: SP-F-SL) were plated at confluence in 96-well plates and allowed to attach overnight in preadipocyte medium (DMEM/Ham's F-12 (1:1, v/v), HEPES buffer, fetal bovine serum and antibiotics) following the supplier's instructions. […] Using a 96-well format, gene expression was determined by q-RT-PCR kit following the Manufacturer's instructions (TaqMan Gene Expression Cells-to-Ct kit, Life Technologies, cat #AM1728) and a 7900 HT Fast Real Time PCR System (Applied Biosystems). […] Mitochondrial mass and activity as well as UCP-1 protein expression were determined by high content imaging (ArrayScan XTI and BMG Fluostar Galaxy reader), with UCP-1 antibody (abcam cat #ab10983), and MitoTracker® Deep Red FM (ThermoFisher M22426).

[3] = system: UCP-1 protein expression in human subcutaneous adipocytes; test: UCP-1 protein expression by immunofluorescence in human subcutaneous adipocytes; format: cell-based; settings: Day 14; 50 nM APT-110 or 100 nM rosiglitazone; PBS 48±3%
Protocol: as §1, with “14. […]” for “14.”
as §2

[4] = Saenger 1989; cited from earlier work
[5] = Day −2 (before treatment), 6 hours fast
[6] = end of 12-week study, Mean ± SEM

In the case of “5′-5mCpsTpsTps2′OMeCpsTpsTps5mCpsApsAps2′OMeCpsTpsGpsGps5mCpsApsGps5mCpsT-3′ [APT-110]”, the “weight increase week 6 vs Week 0” value (DIO C57BL/6J male mice; 60% high fat diet, 15 mg/kg SC, saline 22%) is reported as 6%, the “blood glucose after fasting for 4 hours” value (DIO C57BL/6J male mice; Day 35 of treatment, saline 245±8) is reported as 183 ± 11 mg/dL and the random blood glucose (DIO C57BL/6J male mice; Day 44 of treatment, at necropsy, saline 341±9) is reported as 212 ± 12 mg/dL. For the same compound, the “fat mass lower than control group on saline” value (DIO C57BL/6J male mice; NMR, week 6) was 30%, the fat mass (DIO C57BL/6J male mice; NMR, week 6, saline 16.11±0.87) was 11.29±0.87 grams and the lean mass (DIO C57BL/6J male mice; NMR, week 6, saline 22.33±0.63) was 21.74±0.99 grams. For the same compound, the body weight (DIO C57BL/6J male mice; Week 0 (baseline)) was 34.15±0.53 grams, the serum cholesterol (DIO C57BL/6J male mice; at necropsy, saline 164±6) was 110 ± 5 mg/dL and the body weight (DIO C57BL/6J male mice; week 6, 60% high fat diet, saline 41.73±1.07) was 36.16±0.67 grams. For the same compound, the “non-mitochondrial respirations and proton leak on addition of palmitate” value ([1]; APT-110 50 nM + palmitate) was “dramatic increase”, the maximum respiration increase ([1]; APT-110 50 nM, assay Day 21) was 33% and the “basal OCR vs control adipocytes” value [1] was 2 fold. The “24-hr energy expenditure vs saline” value (DIO C57BL/6 male mice; Day 10 of treatment) was “did not show a difference”, the “energy expenditure vs saline” value (DIO C57BL/6 male mice; Day 11, confirmed on Day 28 and Day 52) was “increase in energy expenditure” and the Blood glucose (DIO C57BL/6 male mice; Day 44, 6 hours fast) was 9.01 ± 0.19 mmol/L. The Plasma adiponectin (DIO C57BL/6 male mice; Day 44, 6 hours fast) was 2.66 ± 0.15, the Plasma insulin (DIO C57BL/6 male mice; Day 44, 6 hours fast) was 295 ± 25 pmol/L and the Plasma leptin (DIO C57BL/6 male mice; Day 44, 6 hours fast) was 4.85 ± 0.42 nmol/L. The “Oral Glucose Tolerance Test profile” value (DIO C57BL/6 male mice; Day 75, glucose 2.5 g/kg p.o., saline mice diabetic profile) was “normal profile”, the Blood glucose (DIO C57BL/6 male mice; Day 79, 6 hours fast) was 5.71 ± 0.18 mmol/L and the Plasma adiponectin (DIO C57BL/6 male mice; Day 79, 6 hours fast) was 3.16 ± 0.13. It also gave a Plasma insulin (DIO C57BL/6 male mice; Day 79, 6 hours fast) of 220 ± 17 pmol/L, a Plasma leptin (DIO C57BL/6 male mice; Day 79, 6 hours fast) of 4.21 ± 0.54 nmol/L and a Cholesterol (DIO C57BL/6 male mice; Day 85, 6-hour fast, p<0.0001) of 4.67 ± 0.16 mmol/L. For the same compound, the “Non Esterified Fatty Acids” value (DIO C57BL/6 male mice; Day 85, 6-hour fast, p=0.003) was 1.71 ± 0.08 mmol/L, the Triglycerides (DIO C57BL/6 male mice; Day 85, 6-hour fast, p=0.11) was 1.46 ± 0.08 mmol/L and the Blood glucose (DIO C57BL/6 male mice; [5]) was 6.69 ± 0.27 mmol/L. For the same compound, the Plasma adiponectin (DIO C57BL/6 male mice; [5]) was 3.16 ± 0.13, the Plasma insulin (DIO C57BL/6 male mice; [5]) was 179 ± 18 pmol/L and the Plasma leptin (DIO C57BL/6 male mice; [5]) was 3.11 ± 0.45 nmol/L. The “fat mass difference vs saline (NMR)” value (DIO C57BL/6 male mice; Week 12, Day 82) was −12%, the “lean mass (NMR)” value (DIO C57BL/6 male mice; Week 12, Day 82) was “identical in both groups” and the “total daily energy expenditure greater than saline” value (DIO C57BL/6 male mice; average, day 11 to day 53) was 13%. For the same compound, the “insulin sensitivity (fasting Insulin/Glucose ratio over time)” value (DIO C57BL/6 male mice; course of the 12-week study, control group developed insulin resistance) was “maintain the same level of insulin sensitivity”, the Epdidymal fat weight (DIO C57BL/6 male mice; [6]) was 1.8 ± 0.978 grams and the Inguinal fat weight (DIO C57BL/6 male mice; [6]) was 3.166 ± 0.135 grams. It also gave a Liver weight (DIO C57BL/6 male mice; [6]) of 2.442 ± 0.127 grams, a Peri-renal fat weight (DIO C57BL/6 male mice; [6]) of 1.183 ± 0.096 grams and a Subscapular fat weight (DIO C57BL/6 male mice; [6]) of 0.202 ± 0.020 grams. For the same compound, the “weight gain vs mice receiving saline injections” value (DIO C57BL/6 male mice; week 12 of treatment, 60% high fat diet) was −30%.
In the case of C[C@H](Cc1ccc2c(c1)OC(C(=O)[O-])(C(=O)[O-])O2)NC[C@H](O)c1cccc(Cl)c1.[Na+].[Na+] [CL316243, reference compound], the “energy expenditure after i.p. injection” value (DIO C57BL/6 male mice; APT-110 group) is reported as “increased” and the “energy expenditure after i.p. injection” value (DIO C57BL/6 male mice; control (saline) group) is reported as “increased”.
With CN(CCOc1ccc(CC2SC(=O)NC2=O)cc1)c1ccccn1 (stereo not shown) [Rosiglitazone, reference compound] the “cell density relative to miR-22-3p inhibitor condition” value [2] was 3 times more cells, the “number of UCP1 positive cells” value [3] was 58±2% and the “maximum respiration vs control” value ([1]; after FCCP, rosiglitazone 100 nM) was 4 fold. For the same compound, the “basal OCR vs control adipocytes” value [1] was 4 fold.
In the case of Nc1ncnc2c1ncn2[C@@H]1O[C@H](CO)[C@@H](O)[C@H]1O [adenosine], the “pKa of the conjugate acid” value [4] is listed as 3.52.
In the case of Nc1nc2c(ncn2[C@@H]2O[C@H](CO)[C@@H](O)[C@H]2O)c(=O)[nH]1 [guanosine], the pKa [4] is given as 9.42.
In the case of Cc1cn([C@H]2C[C@H](O)[C@@H](CO)O2)c(=O)[nH]c1=O [thymidine], the pKa [4] is listed as 9.93.
